Experimental data published in paper PMC3914932, “Automated NMR Fragment Based Screening Identified a Novel Interface Blocker to the LARG/RhoA Complex” (PLoS ONE, 2014).

Biological target: T1, RhoA (Homo sapiens, UniProt P61586)
T1 construct: residues 1–193
Experiment: […] HSQC chemical shift perturbation titration; also STD and WaterLOGSY fragment screening
Format: binding

T1 sequence (P61586 whole entry, the tested form may be a part): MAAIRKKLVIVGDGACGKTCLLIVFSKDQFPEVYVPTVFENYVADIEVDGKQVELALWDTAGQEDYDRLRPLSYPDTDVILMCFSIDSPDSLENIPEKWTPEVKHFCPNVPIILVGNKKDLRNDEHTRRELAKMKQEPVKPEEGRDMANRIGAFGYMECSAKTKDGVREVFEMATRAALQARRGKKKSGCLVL

SMILES: c1ccc(COC2CNC2)cc1 [R1]
- Kd: 110 µM
